Patent US20020015943A1, “Assays, methods and means relating to the modulation of levels of nuclear beta-catenin” (priority 2000, published 2002)
Entries after “also recorded” stand apart in the source; their conditions may differ.

B1: HC: central fragment from human APC (codons 1379-2080) N-terminally tagged with GFP, expressed by transfection (protein, UniProt P25054 1379-2080, looked up, fragment)
chain: ETPLMFSRCTSVSSLDSFESRSIASSVQSEPCSGMVSGIISPSDLPDSPGQTMPPSRSKTPPPPPQTAQTKREVPKNKAPTAEKRESGPKQAAVNAAVQRVQVLPDADTLLHFATESTPDGFSCSSSLSALSLDEPFIQKDVELRIMPPVQENDNGNETESEQPKESNENQEKEAEKTIDSEKDLLDDSDDDDIEILEECIISAMPTKSSRKAKKPAQTASKLPPPVARKPSQLPVYKLLPSQNRLQPQKHVSFTPGDDMPRVYCVEGTPINFSTATSLSDLTIESPPNELAAGEGVRGGAQSGEFEKRDTIPTEGRSTDEAQGGKTSSVTIPELDDNKAEEGDILAECINSAMPKGKSHKPFRVKKIMDQVQQASASSSAPNKNQLDGKKKKPTSPVKPIPQNTEYRTRVRKNADSKNNLNAERVFSDNKDSKKQNLKNNSKVFNDKLPNNEDRVRGSFAFDSPHHYTPIEGTPYCFSRNDSLSSLDFDDDDVDLSREKAELRKAKENKESEAKVTSHTELTSNQQSANKTQAIAKQPINRGQPKPILQKQSTFPQSSKDIPDRGAATDEKLQNFAIENTPVCFSHNSSLSSLSDIDQENNNKENEPIKETEPPDSQGEPSKPQASGYAPKSFHVEDTPVCFSRNSSLSSLSIDSEDDLLQECISSAMPKKKKPSRLKGDNEKHSPRNMGGILGEDLTLDL
modifications: N-terminal GFP tag
notes: central fragment from human APC (codons 1379-2080) N-terminally tagged with GFP, expressed by transfection

How the values were obtained:
[1] = target: T1, nuclear export receptor CRM1 (Drosophila melanogaster, UniProt Q9TVM2); assay: Endogenous E-APC localisation in LMB-treated permeabilised Drosophila embryos; assay type: cell-based; details: 80 ng/ml LMB 60 min
T1 construct: 0-6 hours old embryos were permeabilised in octane; from tissue; host or cells: octane-permeabilised Drosophila embryos, 0-6 hours old
T1 sequence (Q9TVM2 whole entry): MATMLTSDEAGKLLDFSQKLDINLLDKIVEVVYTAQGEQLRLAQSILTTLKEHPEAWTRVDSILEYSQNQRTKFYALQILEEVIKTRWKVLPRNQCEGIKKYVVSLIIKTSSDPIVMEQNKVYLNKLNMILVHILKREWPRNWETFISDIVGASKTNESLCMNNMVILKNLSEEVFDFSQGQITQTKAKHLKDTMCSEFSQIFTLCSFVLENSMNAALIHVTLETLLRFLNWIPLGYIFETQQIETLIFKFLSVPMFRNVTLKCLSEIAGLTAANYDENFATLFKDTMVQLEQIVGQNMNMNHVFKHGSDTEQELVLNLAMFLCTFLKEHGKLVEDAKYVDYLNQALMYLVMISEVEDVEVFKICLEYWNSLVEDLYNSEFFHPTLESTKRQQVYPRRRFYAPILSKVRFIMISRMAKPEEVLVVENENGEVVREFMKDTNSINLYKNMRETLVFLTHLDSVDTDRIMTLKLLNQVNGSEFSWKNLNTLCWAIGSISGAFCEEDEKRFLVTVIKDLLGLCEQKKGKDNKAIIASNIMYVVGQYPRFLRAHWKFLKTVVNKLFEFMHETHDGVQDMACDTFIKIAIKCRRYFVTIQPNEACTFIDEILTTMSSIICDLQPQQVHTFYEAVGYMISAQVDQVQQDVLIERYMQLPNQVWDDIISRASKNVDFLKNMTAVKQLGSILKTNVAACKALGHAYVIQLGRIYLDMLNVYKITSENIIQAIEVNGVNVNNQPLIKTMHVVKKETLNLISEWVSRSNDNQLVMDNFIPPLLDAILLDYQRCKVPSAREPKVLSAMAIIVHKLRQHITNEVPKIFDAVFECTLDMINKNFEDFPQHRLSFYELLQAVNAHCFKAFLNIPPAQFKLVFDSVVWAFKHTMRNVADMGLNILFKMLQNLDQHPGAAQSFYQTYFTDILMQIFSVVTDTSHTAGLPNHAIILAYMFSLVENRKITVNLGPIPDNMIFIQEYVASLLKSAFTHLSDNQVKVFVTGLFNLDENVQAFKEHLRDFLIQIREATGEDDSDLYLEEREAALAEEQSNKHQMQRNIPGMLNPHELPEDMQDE
Experimental: Drosophila embryos were fixed and stained as described (Yu, X. et al. Nature Cell Biol 3, 144-151 (1999)). For drug treatments, 0-6 hours old embryos were permeabilised in octane (Lantz, V. A. et al. Mech Dev 85, 111-122 (1999)) and subsequently incubated for 60 min. with 80 ng/ml LMB. Controls were octane-permeabilised and incubated in solvent alone (<1% ethanol).
The following antibodies were used: rabbit anti-E-APC (1:10′000) (Yu, X. et al. Nature Cell Biol 3, 144-151 (1999), rabbit anti-APC (1:700) (Näthke, I. S. et al. J Cell Biol 134, 165-179 (1996)), mouse anti-lamin (1:150), mouse anti-β-catenin (1:500; Transduction Laboratories), Alexa Red and Green (1:500; Molecular Probes). images were collected on an MRC 1024 confocal microscope.

[2] = test system: nuclear β-catenin in SW480 cells; assay: Complementation assay in transfected SW480 cells, immunofluorescence of APC construct and β-catenin; assay type: cell-based
Description: All constructs were inserted into pEGFP-C2 (Clontech), producing N-terminally tagged GFP fusions. Each construct (except HC and HCala, see below) also contains a triple hemagglutinin (HA) tag inserted between GFP and APC coding sequence. In coreNES, the following NES-encoding sequences were inserted between the HA tag and the ARDcore (first of a pair human, second Drosophila, bold NES residues were substituted to alanine in coreNESala; in coreNEScon, underlined conserved non-NES residues were substituted by alanine): 203, […], […]; 20R4, […], […]; 20R7, […]. coreNESmin from Drosophila 20R4 contains ISGLSHLTVGSA (bold residues substituted by alanine in the mutant version). We also fused the putative NES from Drosophila pseudoR20 (FIG. 1, arrowhead) to ARDcore, but this NES candidate ([…]) was non-functional. For the complementation assays in SW480 cells, a central fragment from human APC (codons 1379-2080) was N-terminally tagged with GFP (HC, see above). The above described alanine substitutions of 20R-linked NESs were introduced into HC, and into GFP-E-APC, using the Quik-Change Site-Directed Mutagenesis Kit (Stratagene), HCala1 and HCala2 are partial mutants retaining one and two NESs, respectively (see text) All constructs were verified by sequencing.
Monkey COS cells were grown in DMEM medium (supplemented with 10% fetal calf serum), and transfected with FuGENE™ (Morin, P. J. et al. Science 275, 1787-1790 (1997)) Transfection Reagent (Roche). SW480 and HCT116 cells were grown in Leibovitz's L15 medium (with 10% fetal calf serum), and transfected with Lipofectamine (Life Technologies Inc.). 0.4 or […] DNA was used per transfection of COS or SW480 cells (in 35 mm culture wells), respectively. Transfected cells were harvested for analysis after 24-48 hours. […]
(§1) Qualitative analysis was thus backed up by quantitative evaluation of 10-20 randomly chosen fields in which each individual healthy cell was scored. Ratios of nuclear to cytoplasmic fluorescence levels were determined.

[3] = test system: nuclear export receptor CRM1; assay: Subcellular distribution of GFP-tagged APC constructs in transfected COS cells with or without LMB; assay type: cell-based, monkey
Description: All constructs were inserted into pEGFP-C2 (Clontech), producing N-terminally tagged GFP fusions. Each construct (except HC and HCala, see below) also contains a triple hemagglutinin (HA) tag inserted between GFP and APC coding sequence. In coreNES, the following NES-encoding sequences were inserted between the HA tag and the ARDcore (first of a pair human, second Drosophila, bold NES residues were substituted to alanine in coreNESala; in coreNEScon, underlined conserved non-NES residues were substituted by alanine): 203, […], […]; 20R4, […], […]; 20R7, […]. coreNESmin from Drosophila 20R4 contains […] (bold residues substituted by alanine in the mutant version). […] For the complementation assays in SW480 cells, a central fragment from human APC (codons 1379-2080) was N-terminally tagged with GFP (HC, see above). The above described alanine substitutions of 20R-linked NESs were introduced into HC, and into GFP-E-APC, using the Quik-Change Site-Directed Mutagenesis Kit (Stratagene), HCala1 and HCala2 are partial mutants retaining one and two NESs, respectively (see text) All constructs were verified by sequencing.
Monkey COS cells were grown in DMEM medium (supplemented with 10% fetal calf serum), and transfected with FuGENE™ (Morin, P. J. et al. Science 275, 1787-1790 (1997)) Transfection Reagent (Roche). SW480 and HCT116 cells were grown in Leibovitz's L15 medium (with 10% fetal calf serum), and transfected with Lipofectamine (Life Technologies Inc.). 0.4 or […] DNA was used per transfection of COS or SW480 cells (in 35 mm culture wells), respectively. Transfected cells were harvested for analysis after 24-48 hours. For staining, cells were either fixed with chilled methanol for 10 min. at −20° C. or fixed with 4% paraformaldehyde (freshly prepared, in phosphate buffered saline) for 30 min. Cells were then permeabilised with 0.1% Triton X-100 and blocked with bovine serum albumin for 15 min. each, and subsequently incubated at room temperature with primary and secondary antibody for 60 and 30 min, respectively. COS cells were treated with LMB (50 ng/ml)) for 1-2 hours 24 hours after transfection, SW480 cells for 2 hours 48 hours after transfection.
as §1

nuclear β-catenin = assay: TOPFLASH/FOPFLASH luciferase transcriptional read-out of nuclear β-catenin in SW480 cells; assay type: cell-based; details: TOPFLASH, versus mock-transfected
Experimental: pTOPFLASH and pFOPFLASH were used for transcriptional read-out assays of nuclear β-catenin in SW480 cells (Korinek, V. et al. Science 275, 1784-1787 (1997)). pRL-CMV served as an internal control, and luciferase assays were performed with the Dual Luciferase™ Reporter Assay System (Promega). Relative luciferase activities (x100) were obtained by dividing TOP- or FOP-FLASH values by pRL-CMV values (FIG. 3). TOP-FLASH values reflect averages of 2-4 independent transfections, their standard deviations are given.

[4] = HC-transfected SW480 cells, LMB 2 hours

Molecule | effect on localisation of endogenous E-APC [1] | effect on localisation of HC [2, 4] | effect on reduction of nuclear β-catenin by HC [2, 4] | effect on nuclear exclusion / distribution of Cterm1 and Cterm2 ([3]; LMB 50 ng/ml 1-2 hours) | effect on nuclear exclusion of coreNES fusions ([3]; LMB 50 ng/ml 1-2 hours) | effect on subcellular distribution of ARDcore and coreNESala mutants ([3]; LMB 50 ng/ml 1-2 hours) | effect on distribution of full-length E-APC ([3]; LMB treatment (not shown)) | reduction of luciferase activity (transcriptional activity of nuclear β-catenin) (nuclear β-catenin) | reduction of nuclear β-catenin by transfected construct ([2]; transfected SW480 cells, immunofluorescence)
CCC(=C/[C@H](C)C/C=C/C(C)=C/[C@@H](C)C(=O)[C@@H](C)[C@H](O)[C@@H](C)C/C(C)=C/C(=O)O)/C=C/[C@@H]1OC(=O)C=C[C@@H]1C [LMB, leptomycin B] | E-APC was found to accumulate in the nuclei; also recorded: endogenous E-APC is retained efficiently in nuclei | caused nuclear retention of HC | attenuated the reduction of nuclear β-catenin by HC | blocked; also recorded: even distribution of Cterm1 and 2 throughout cytoplasm and nucleus | abolishes the nuclear exclusion of all coreNES fusions | neither affected | accumulated to some extent in the nucleus | – | –
B1 | – | – | – | – | – | – | – | much reduced | strongly reduced nuclear β-catenin
